Results: patent publication EP0220825A2, “Pharmaceutical composition for topical application” (DIOMED DEVELOPMENTS LIMITED, priority 1985, dated 1987)
Several values for one entry are separate records, joined by “and”; a condition that tells them apart may be missing. Equal entries are not always repeated.

Assays:
skin = assay: Erythema score after topical application; assay type: in vivo
Source text: Using an erythema scale of 0 to 3, an erythema value of up to 0.5 (which is barely detectable) is considered acceptable. The figures for "area" given in the third column are obtained by graphical integration of a graph of blood cell flux against time obtained using the laser Doppler flowmeter. Any figure in this column greater than about 20 may be regarded as indicative of a useful improvement in local blood flow in the treated area. […] Thus the compositions in accordance with the invention make it possible to obtain a useful increase in local blood flow without appreciable erythema. The compositions of the present invention are thus useful in preventing pressure sores where is it desired to stimulate local blood flow without obvious erythema.

local blood flow = assay: Laser Doppler flowmeter measurement of blood cell flux after topical application; assay type: in vivo; conditions: for No. measurable responses: of ten subjects; for Time to response Initial / Time to response Peak / Time to response Return to zero: ± S.D.
Source text: The blood cell flux is then given by the product of the number of red blood cells found to be moving in the irradiated volume of skin and adjacent tissue and the mean red blood cell velocity. The results expressed by the flowmeter indicate the relative change of the blood cell flux over control conditions, i.e. before application of the composition. […] The figures for "area" given in the third column are obtained by graphical integration of a graph of blood cell flux against time obtained using the laser Doppler flowmeter. Any figure in this column greater than about 20 may be regarded as indicative of a useful improvement in local blood flow in the treated area. […] Thus the compositions in accordance with the invention make it possible to obtain a useful increase in local blood flow without appreciable erythema. The compositions of the present invention are thus useful in preventing pressure sores where is it desired to stimulate local blood flow without obvious erythema.

## CCCCCCOC(=O)c1cccnc1 [hexyl nicotinate, Hexyl nicotinate]
skin; 0.025 % hexyl nicotinate lotion, site arms, single subjects, score 0-3 (0=No erythema, 3=severe erythema)
  Erythema: 0 (4×) and 0.5
skin; 0.025 % hexyl nicotinate lotion, site buttocks, single subjects, score 0-3
  Erythema: 0 (4×) and 1
skin; 0.05 % hexyl nicotinate lotion (Example l), site arms, single subjects, score 0-3
  Erythema: 0 (2×) and 0.5 (2×) and 1
skin; 0.05 % hexyl nicotinate lotion (Example l), site buttocks, single subjects, score 0-3
  Erythema: 1 (2×) and 0.5 and 0 (2×)
skin; 0.10 % hexyl nicotinate lotion, site arms, single subjects, score 0-3
  Erythema: 2 (3×) and 0 and 1
skin; 0.10 % hexyl nicotinate lotion, site buttocks, single subjects, score 0-3
  Erythema: 2 and 1 and 0.5 (2×) and 3
skin; concentrations in the range 0.l to 0.2% by weight of the composition, patients
  Erythema: cause erytheme in a significant proportion of patients
skin; summary of ten subjects, 0.025 % hexyl nicotinate, score 0-3
  Erythema: 0.15
skin; summary of ten subjects, 0.05 % hexyl nicotinate, score 0-3
  Erythema: 0.45
skin; summary of ten subjects, 0.10 % hexyl nicotinate, score 0-3
  Erythema: 1.40
Local blood flow; 0.025 % hexyl nicotinate lotion, site arms, single subjects, area under curve of blood cell flux against time, adjusted to a sensitivity of 1
  Area: 0 cm^2 (4×) and 124.05 cm^2
Local blood flow; 0.025 % hexyl nicotinate lotion, site buttocks, single subjects, area under curve of blood cell flux against time
  Area: 5.00 cm^2 and 0 cm^2 (3×) and 51.59 cm^2
Local blood flow; 0.05 % hexyl nicotinate lotion (Example l), site arms, single subjects, area under curve of blood cell flux against time
  Area: 32.17 cm^2 and 0 cm^2 and 89.59 cm^2 and 80.90 cm^2 and 126.32 cm^2
Local blood flow; 0.05 % hexyl nicotinate lotion (Example l), site buttocks, single subjects, area under curve of blood cell flux against time
  Area: 91.86 cm^2 and 22.28 cm^2 and 4.29 cm^2 and 0 cm^2 and 64.73 cm^2
Local blood flow; 0.10 % hexyl nicotinate lotion, site arms, single subjects, area under curve of blood cell flux against time
  Area: 103.06 cm^2 and 0 cm^2 and 82.80 cm^2 and 152.26 cm^2 and 119.99 cm^2
Local blood flow; 0.10 % hexyl nicotinate lotion, site buttocks, single subjects, area under curve of blood cell flux against time
  Area: 246.74 cm^2 and 119.97 cm^2 and 0 cm^2 and 5.24 cm^2 and 199.76 cm^2
Local blood flow; 0.025 % hexyl nicotinate
  No. measurable responses: 2
  Time to response Initial: 5.5 ± 0.7 min
  Time to response Peak: 22.5 ± 6.4 min
  Time to response Return to zero: 78.5 ± 16.3 min
Local blood flow; 0.05 % hexyl nicotinate
  No. measurable responses: 8
  Time to response Initial: 10.6 ± 5.0 min
  Time to response Peak: 27.9 ± 12.3 min
  Time to response Return to zero: 75.8 ± 19.2 min
Local blood flow; 0.10 % hexyl nicotinate
  No. measurable responses: 8
  Time to response Initial: 7.8 ± 2.3 min
  Time to response Peak: 20.8 ± 6.4 min
  Time to response Return to zero: 83.3 ± 17.7 min
Local blood flow; summary of ten subjects, 0.025 % hexyl nicotinate
  Area: 18.05 cm^2
Local blood flow; summary of ten subjects, 0.05 % hexyl nicotinate
  Area: 51.21 cm^2
Local blood flow; summary of ten subjects, 0.10 % hexyl nicotinate
  Area: 102.98 cm^2
